One may read the melting point as the temperature, or range, at which the solid turns liquid.

Data set [1] concerns KMS12-BM (NIK WT) multiple myeloma cells. As to the kind of experiment: Antiproliferative activity on KMS12-BM multiple myeloma cells (CellTiter-Glo). Type of data set: cell-based, human. The note with it: Homo sapiens, KMS-12-BM, 96 h, 96 hr treatment, averaged values, read-out: KMS-12 Proliferation inhibition (IC50 (nM)). The essentials:
(§1)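 Cells plated at 15000 (JJN3) or 20000 (KMS12BM) per well and treated 96 h at 37° C, 5% CO2, final DMSO 0.3%, 9-point 1:3 dilutions. Viability by CellTiter-Glo luminescence; time-zero blank subtracted, growth expressed as percent of untreated control.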
A general note: ATP-based viability assays read luminescence as a measure of living cells.

The test system of data set [2] is JJN-3 (NIK translocated) multiple myeloma cells. As to the kind of experiment: Antiproliferative activity on JJN-3 multiple myeloma cells (CellTiter-Glo). Type of data set: cell-based, human. Particulars: Homo sapiens, JJN-3, 96 h, JJN-3 (NIK translocated) cells, 96 hr treatment, averaged values, read-out: JJN-3 Proliferation inhibition (IC50 (nM)). The procedure, abridged:
as §1

Data set [3] deals with recombinant human NF-kappaB-inducing Kinase (NIK/MAP3K14) (Homo sapiens, UniProt Q99558). In words: Inhibition of auto-phosphorylation of recombinant human NIK/MAP3K14 activity (AlphaScreen). The note with it: 25 microM ATP, averaged over all measurements on all batches. The format is biochemical. (In general: Bead proximity is the source of the signal in Alpha formats.)
recombinant human NF-kappaB-inducing Kinase (NIK/MAP3K14), sequence (Q99558 whole entry): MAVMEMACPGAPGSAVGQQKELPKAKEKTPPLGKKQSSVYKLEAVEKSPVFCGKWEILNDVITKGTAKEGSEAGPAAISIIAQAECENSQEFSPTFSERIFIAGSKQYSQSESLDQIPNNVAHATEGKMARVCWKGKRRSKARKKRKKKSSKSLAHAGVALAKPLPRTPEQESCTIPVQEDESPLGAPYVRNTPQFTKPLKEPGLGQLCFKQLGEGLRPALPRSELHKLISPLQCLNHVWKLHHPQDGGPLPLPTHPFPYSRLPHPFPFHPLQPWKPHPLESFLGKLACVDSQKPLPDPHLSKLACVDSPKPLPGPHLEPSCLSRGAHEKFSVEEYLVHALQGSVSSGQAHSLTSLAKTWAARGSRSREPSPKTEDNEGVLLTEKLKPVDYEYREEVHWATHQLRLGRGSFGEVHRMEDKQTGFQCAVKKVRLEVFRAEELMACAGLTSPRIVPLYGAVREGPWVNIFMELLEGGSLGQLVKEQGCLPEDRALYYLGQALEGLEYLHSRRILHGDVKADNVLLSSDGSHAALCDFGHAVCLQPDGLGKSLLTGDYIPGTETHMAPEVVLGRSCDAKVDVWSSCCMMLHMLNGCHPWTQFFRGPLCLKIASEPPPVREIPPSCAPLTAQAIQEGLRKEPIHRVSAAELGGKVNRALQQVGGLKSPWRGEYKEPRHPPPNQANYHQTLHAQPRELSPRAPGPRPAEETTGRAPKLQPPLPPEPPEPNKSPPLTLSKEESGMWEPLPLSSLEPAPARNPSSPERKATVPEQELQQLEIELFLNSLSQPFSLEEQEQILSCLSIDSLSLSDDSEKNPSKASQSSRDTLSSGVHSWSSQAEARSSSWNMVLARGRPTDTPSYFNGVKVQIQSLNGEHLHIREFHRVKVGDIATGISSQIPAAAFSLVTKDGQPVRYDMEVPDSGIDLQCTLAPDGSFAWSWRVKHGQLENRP

`C[C@]1(CO)CNc2c(C#N)cc(-c3ccnc(Nc4cccnc4O[C@@H]4CCCOC4)n3)cc21` [Compound 27] gave a melting point of 149 °C. Also, the IC50 in data set [1] stood at 7410 nM. For the same compound, the IC50 in data set [2] came to 1510 nM. The IC50 in data set [3] amounted to 3.6 nM.

Regarding `C[C@]1(CO)CNc2c(C#N)cc(-c3ccnc(Nc4cccnc4OC4CCOCC4)n3)cc21` [Compound 23], the melting point is 213 °C. Besides, the IC50 in data set [1] was determined as 7410 nM. For the same compound, in data set [2], the IC50 came to 708 nM. The IC50 in data set [3] was 4.9 nM.

With `CCCCOc1ncccc1Nc1nccc(-c2cc(C#N)c3c(c2)[C@@](C)(CO)CN3)n1` [Compound 40], the melting point turned out to be 143 °C. For the same compound, the IC50 in data set [1] is 3800 nM. Besides, the IC50 in data set [2] stood at 550 nM. For the same compound, in data set [3], the IC50 was found to be 16.6 nM.

The compound `CC1(C)CNc2c(C#N)cc(-c3ccnc(Nc4cnc(N5CCOCC5)nc4)n3)cc21` [Compound 125] returned a melting point of 270 °C. Moreover, the IC50 in data set [1] turned out to be 891 nM. Also, the IC50 in data set [2] stood at 166 nM. Further, the IC50 in data set [3] worked out at 9.8 nM.

`COc1ncccc1Nc1nccc(-c2cc(C#N)c3c(c2)C(C)(CN2CCOCC2)CN3)n1` (stereo not drawn) [Compound 113] yielded a melting point of 95 °C. Moreover, the IC50 in data set [1] is over 10000 nM. Further, in data set [2], the IC50 came to 5750 nM. For the same compound, the IC50 in data set [3] turned out to be 34.7 nM.

In turn, `COC[C@@]1(C)CNc2c(C#N)cc(-c3ccnc(Nc4cc(Cl)cnc4C)n3)cc21` [Compound 122] yielded a melting point of 182 °C. For the same compound, the IC50 in data set [1] was found to be 4790 nM. In data set [2], the IC50 stood at 478 nM. The IC50 in data set [3] came out at 9.5 nM.

The compound `COc1ncccc1Nc1nccc(-c2cc(C#N)c3c(c2)[C@](C)(CO)CN3)n1` [Compound 7] came in with a melting point of 245 °C. For the same compound, the IC50 in data set [1] was over 10000 nM. Also, the IC50 in data set [2] was found to be 1580 nM. The IC50 in data set [3] stood at 15.5 nM.

Compound `COc1ncccc1Nc1nccc(-c2cc(C#N)c3c(c2)C(C)(CNC(C)=O)CN3)n1` (stereo not drawn) [Compound 115] returned a melting point of 203 °C. Further, the IC50 in data set [1] was 6310 nM. The IC50 in data set [2] amounted to 741 nM. The IC50 in data set [3] came to 10 nM.

In turn, `CNCC1(C)CNc2c(C#N)cc(-c3ccnc(Nc4cccnc4OC)n3)cc21` (stereo not drawn) [Compound 108] yielded a melting point of 173 °C. Further, in data set [1], the IC50 was about 3980 nM. The IC50 in data set [2] was found to be 2140 nM. Further, in data set [3], the IC50 amounted to 25.1 nM.

In turn, `CC(C)Oc1ncc(Cl)cc1Nc1nccc(-c2cc(C#N)c3c(c2)[C@@](C)(CO)CN3)n1` [Compound 30] had a melting point of 195 °C. In addition, the IC50 in data set [1] is over 10000 nM. Besides, in data set [2], the IC50 was determined as 1260 nM. Further, the IC50 in data set [3] worked out at 51.3 nM.

`Cc1cc(Nc2nccc(-c3cc(C#N)c4c(c3)C(C)(CO)CN4)n2)nc(C)n1` (stereo not drawn) [Compound 127]: the melting point was 333 °C. Besides, the IC50 in data set [1] is over 10000 nM. In addition, in data set [2], the IC50 is about 7080 nM. The IC50 in data set [3] is 4.5 nM.

Turning to `C[C@]1(CO)CNc2c(C#N)cc(-c3ccnc(Nc4cccnc4O[C@H]4CCOC4)n3)cc21` [Compound 28], the melting point was 194 °C. The IC50 in data set [1] was found to be 3090 nM. In data set [2], the IC50 came out at 813 nM. In data set [3], the IC50 turned out to be 3.2 nM.

`CCOc1ncc(Cl)cc1Nc1nccc(-c2cc(C#N)c3c(c2)[C@@](C)(CO)CN3)n1` [Compound 35] displayed a melting point of 220 °C. The IC50 in data set [1] was over 10000 nM. Besides, the IC50 in data set [2] stood at 794 nM. Further, in data set [3], the IC50 is 15.9 nM.

`CC1(CO)CNc2c(C#N)cc(-c3nc(Nc4cccnc4OC4CCOCC4)ncc3F)cc21` (stereo not drawn) [Compound 107] showed a melting point of 226 °C. In data set [1], the IC50 is 562 nM. Further, the IC50 in data set [2] was found to be 309 nM. Besides, the IC50 in data set [3] was determined as 4.8 nM.

The compound `COc1ncccc1Nc1nccc(-c2cc(C#N)c3c(c2)C(C)(CNC2CC2)CN3)n1` (stereo not drawn) [Compound 110] returned a melting point of 116 °C. Further, in data set [1], the IC50 is over 10000 nM. Also, in data set [2], the IC50 is 1860 nM. In data set [3], the IC50 stood at 33.9 nM.

For the origin of these results see patent US11001569B2, “6-membered heteroaromatic substituted cyanoindoline derivatives as NIK inhibitors” (Janssen Pharmaceutica NV, priority 2016, dated 2021).
